Patent publication EP0333517A2, “Method and agent for inhibiting the binding of human polymorphonuclear leukocytes to endothelium and compositions therefor” (THE ROCKEFELLER UNIVERSITY, priority 1988, dated 1989)
Residues, ends and D or L forms follow the SMILES beside them.

Legend:
[1] = tested on: binding of PMN to fibrinogen; assay: Binding of phorbol dibutyrate-stimulated PMN to fibrinogen-coated surfaces (adherent cells counted by phase contrast microscopy); type: cell-based, human; conditions: 2 mg/ml of synthetic peptide; PMN stimulated with 300 ng/ml phorbol dibutyrate; 20 min at 0°C then 30 min at 37°C; Figure 1
Method: This example illustrates that the method of the invention can be used to inhibit binding of stimulated PMN to fibrinogen-coated surfaces. Figure 1 illustrates the level of inhibition of binding by incubation with monoclonal antibodies against CD11b/CD18 and with the peptide L10, and Figure 2 illustrates the dose dependence of this inhibition.
Details of the experiments are as follows. Purified human PMN were stimulated for 15 min. with 300 ng/ml of phorbol dibutyrate. This stimulation is necessary to enable PMN to bind, and mimics the stimulation of PMN at sites of inflammation. Culture wells were coated with fibrinogen or human serum albumin by incubating 1 mg/ml of these proteins with the culture surfaces for 1 hr. at 20°C. The PMN were then washed and added to culture wells coated with fibrinogen in the presence of 10µg/ml of various monoclonal antibodies or 2 mg/ml of synthetic peptides. PMN were allowed to settle onto the surface for 20 min. at 0°C, then were warmed to 37°C for 30 min. The surfaces were then washed and the number of cells adherent were counted by phase contrast microscopy.

[2] = tested on: binding of PMN to endothelial cells; assay: Binding of phorbol dibutyrate-stimulated PMN to endothelial cells (binding assessed by microscopy); type: cell-based; conditions: indicated doses (Figures 3 and 4, not given); human umbilical cord endothelial cells; 37°C for 15 min
Method: This example illustrates that the method of the invention can be used to inhibit the binding of stimulated PMN to human endothelial cells.
The experiments are conducted as follows. Purified human PMN were stimulated for 15 min. with 300 ng/ml of phorbol dibutyrate. This stimulation is necessary to enable PMN to bind, and mimics the stimulation of PMN at sites of inflammation. Endothelial cells were isolated from human umbilical cords by standard methods [Pawlowski et al., Proc. Natl. Aca. Sci., 82, 8202 (1985)] and were cultivated on fibronectin-coated tissue culture surfaces to confluence. […] PMN were washed and combined with the indicated doses of Arg-Leu-Leu-Pro-Gly-Gly-Leu-Gln-Gln-Gly-Arg-Gly- Asp-Ala-Val-Gly-Pro-Glu-Arg-Gly-Cys (Pep63) in Figure 3, or with the indicated doses of Gly-Gln-Gln-His-His-Leu-Gly-Gly-Ala-Lys-Gln-Ala-Gly-Asp-Val (G15) in Figure 4. The cells were then added to the endothelium and incubated at 37°C for 15 min. Unattached PMN were then washed away and the binding was assessed by microscopy.

| Compound | binding of PMN to fibrinogen [1] | inhibition of the binding of PMN to endothelial cells [2] |
| --- | --- | --- |
| CC(C)C[C@H](N)C(=O)NCC(=O)NCC(=O)N[C@@H](C)C(=O)N[C@@H](CCCCN)C(=O)N[C@@H](CCC(N)=O)C(=O)N[C@@H](C)C(=O)NCC(=O)N[C@@H](CC(=O)O)C(=O)N[C@H](C(=O)O)C(C)C [L10, Leu-Gly-Gly-Ala-Lys-Gln-Ala-Gly-Asp-Val] (H-LGGAKQAGDV-OH) | strongly inhibits binding | – |
| CC(C)C[C@H](NC(=O)CNC(=O)CNC(=O)[C@@H]1CCCN1C(=O)[C@H](CC(C)C)NC(=O)[C@H](CC(C)C)NC(=O)[C@@H](N)CCCNC(=N)N)C(=O)N[C@@H](CCC(N)=O)C(=O)N[C@@H](CCC(N)=O)C(=O)NCC(=O)N[C@@H](CCCNC(=N)N)C(=O)NCC(=O)N[C@@H](CC(=O)O)C(=O)N[C@@H](C)C(=O)N[C@H](C(=O)NCC(=O)N1CCC[C@H]1C(=O)N[C@@H](CCC(=O)O)C(=O)N[C@@H](CCCNC(=N)N)C(=O)NCC(=O)N[C@@H](CS)C(=O)O)C(C)C [Pep63] (H-RLLPGGLQQGRGDAVGPERGC-OH) | – | dose dependence of inhibition |
| CC(C)C[C@H](NC(=O)[C@H](Cc1c[nH]cn1)NC(=O)[C@H](Cc1c[nH]cn1)NC(=O)[C@H](CCC(N)=O)NC(=O)[C@H](CCC(N)=O)NC(=O)CN)C(=O)NCC(=O)NCC(=O)N[C@@H](C)C(=O)N[C@@H](CCCCN)C(=O)N[C@@H](CCC(N)=O)C(=O)N[C@@H](C)C(=O)NCC(=O)N[C@@H](CC(=O)O)C(=O)N[C@H](C(=O)O)C(C)C [G15, Gly-Gln-Gln-His-His-Leu-Gly-Gly-Ala-Lys-Gln-Ala-Gly-Asp-Val] (H-GQQHHLGGAKQAGDV-OH) | – | dose dependence of inhibition |
